Results as given in ChEMBL document CHEMBL3885861, “Open TG-GATES”.

Species on record: Rattus norvegicus
Assay: Open TG-GATES - Regimen: Single
Assay type: toxicity, organism-based, Sprague-Dawley
Set-up: regimen Single, gender Male, age 6 weeks
Conditions: in vivo, po, route gavage; for APTT / Bas / Eos / Fbg / Hb / Ht / Lym / MCH / MCHC / MCV / Mono / Neu / PT / Plat / RBC / Ret / WBC: tissue Blood; for KIDNEY_L / KIDNEY_R / KIDNEY_TOTAL: tissue Kidney; for LIVER: tissue Liver; for A/G / ALP / ALT / AST / BUN / CRE / Ca / Cl / DBIL / GLC / IP / K / LDH / Na / PL / RALB / TBIL / TC / TG / TP / gamma-GTP: tissue Plasma
[1] = 0 mg/kg, 3 h, dose level Control
[2] = 0 mg/kg, 6 h, dose level Control
[3] = 0 mg/kg, 9 h, dose level Control
[4] = 0 mg/kg, 24 h, dose level Control

## CCCNC(=O)NS(=O)(=O)c1ccc(Cl)cc1 [CHLORPROPAMIDE]
[1]
  TERMINAL_BW: 199.1 g
  APTT: 16.5 s
  Bas: 0.4%
  Eos: 1%
  Fbg: 290 mg/dL
  Hb: 13.3 g/dL
  Ht: 40.3%
  Lym: 76.2%
  MCH: 21.1 pg
  MCHC: 32.9%
  MCV: 64.1 fL
  Mono: 3.4%
  Neu: 17.8%
  PT: 15.6 s
  Plat: 118.9 x10_4/uL
  RBC: 629.8 x10_4/ul
  Ret: 8.9%
  WBC: 85.4 x10_2/uL
  KIDNEY_L: 0.9 g
  KIDNEY_R: 0.9 g
  KIDNEY_TOTAL: 1.8 g
  LIVER: 8.8 g
  A/G: 0.9
  ALP: 1444 IU/L
  ALT: 43.6 IU/L
  AST: 75.8 IU/L
  BUN: 10.4 mg/dL
  CRE: 0.2 mg/dL
  Ca: 10.9 mg/dL
  Cl: 106 meq/L
  DBIL: 0.01 mg/dL
  GLC: 176.6 mg/dL
  IP: 8.9 mg/dL
  K: 4.3 meq/L
  LDH: 89 IU/L
  Na: 142.2 meq/L
  PL: 137.8 mg/dL
  RALB: 2.5 g/dL
  TBIL: 0.04 mg/dL
  TC: 80.2 mg/dL
  TG: 53.8 mg/dL
  TP: 5.4 g/dL
  gamma-GTP: 1.4 IU/L
[2]
  TERMINAL_BW: 194.7 g
  APTT: 18.3 s
  Bas: 0.2%
  Eos: 1%
  Fbg: 308.8 mg/dL
  Hb: 13.2 g/dL
  Ht: 40.5%
  Lym: 71.2%
  MCH: 21 pg
  MCHC: 32.6%
  MCV: 64.3 fL
  Mono: 3%
  Neu: 23.8%
  PT: 15.4 s
  Plat: 108.8 x10_4/uL
  RBC: 630.6 x10_4/ul
  Ret: 9.2%
  WBC: 85.6 x10_2/uL
  KIDNEY_L: 0.9 g
  KIDNEY_R: 0.9 g
  KIDNEY_TOTAL: 1.7 g
  LIVER: 8.2 g
  A/G: 0.9
  ALP: 1385.6 IU/L
  ALT: 42.4 IU/L
  AST: 74.4 IU/L
  BUN: 9.4 mg/dL
  CRE: 0.2 mg/dL
  Ca: 10.7 mg/dL
  Cl: 106 meq/L
  DBIL: 0.01 mg/dL
  GLC: 174 mg/dL
  IP: 9.8 mg/dL
  K: 4.2 meq/L
  LDH: 63.6 IU/L
  Na: 143 meq/L
  PL: 153.4 mg/dL
  RALB: 2.5 g/dL
  TBIL: 0.046 mg/dL
  TC: 90.6 mg/dL
  TG: 50.6 mg/dL
  TP: 5.4 g/dL
  gamma-GTP: 1 IU/L
[3]
  TERMINAL_BW: 194.8 g
  APTT: 18.5 s
  Bas: 0%
  Eos: 0.8%
  Fbg: 294.6 mg/dL
  Hb: 12.9 g/dL
  Ht: 39.6%
  Lym: 74.4%
  MCH: 21.3 pg
  MCHC: 32.8%
  MCV: 65.1 fL
  Mono: 2.2%
  Neu: 21%
  PT: 15.4 s
  Plat: 119.1 x10_4/uL
  RBC: 607.8 x10_4/ul
  Ret: 9.1%
  WBC: 91.1 x10_2/uL
  KIDNEY_L: 0.9 g
  KIDNEY_R: 0.9 g
  KIDNEY_TOTAL: 1.8 g
  LIVER: 7.6 g
  A/G: 0.9
  ALP: 1410 IU/L
  ALT: 42 IU/L
  AST: 74.6 IU/L
  BUN: 8.4 mg/dL
  CRE: 0.2 mg/dL
  Ca: 10.6 mg/dL
  Cl: 106.8 meq/L
  DBIL: 0.006 mg/dL
  GLC: 165.4 mg/dL
  IP: 10 mg/dL
  K: 3.9 meq/L
  LDH: 63.6 IU/L
  Na: 142.8 meq/L
  PL: 136.6 mg/dL
  RALB: 2.5 g/dL
  TBIL: 0.052 mg/dL
  TC: 84.4 mg/dL
  TG: 41.4 mg/dL
  TP: 5.4 g/dL
  gamma-GTP: 1 IU/L
[4]
  TERMINAL_BW: 211.4 g
  APTT: 16.9 s
  Bas: 0.2%
  Eos: 0.8%
  Fbg: 277.8 mg/dL
  Hb: 13 g/dL
  Ht: 40.6%
  Lym: 80%
  MCH: 21.7 pg
  MCHC: 32.2%
  MCV: 67.3 fL
  Mono: 2.8%
  Neu: 15%
  PT: 15.5 s
  Plat: 117.6 x10_4/uL
  RBC: 602.6 x10_4/ul
  Ret: 9.2%
  WBC: 102.7 x10_2/uL
  KIDNEY_L: 0.9 g
  KIDNEY_R: 0.9 g
  KIDNEY_TOTAL: 1.9 g
  LIVER: 10.1 g
  A/G: 0.8
  ALP: 1569 IU/L
  ALT: 44.8 IU/L
  AST: 71.8 IU/L
  BUN: 14.6 mg/dL
  CRE: 0.2 mg/dL
  Ca: 10.9 mg/dL
  Cl: 105.4 meq/L
  DBIL: 0.012 mg/dL
  GLC: 187 mg/dL
  IP: 8.5 mg/dL
  K: 4.2 meq/L
  LDH: 79.4 IU/L
  Na: 142.6 meq/L
  PL: 154 mg/dL
  RALB: 2.6 g/dL
  TBIL: 0.034 mg/dL
  TC: 82.6 mg/dL
  TG: 108.6 mg/dL
  TP: 5.6 g/dL
  gamma-GTP: 1 IU/L
30 mg/kg, 3 h, dose level Low
  TERMINAL_BW: 200 g
  APTT: 16.8 s
  Bas: 0.4%
  Eos: 0.8%
  Fbg: 301.8 mg/dL
  Hb: 13.1 g/dL
  Ht: 40%
  Lym: 76.8%
  MCH: 20.9 pg
  MCHC: 32.7%
  MCV: 64 fL
  Mono: 3.6%
  Neu: 17.8%
  PT: 15.6 s
  Plat: 122.9 x10_4/uL
  RBC: 625.4 x10_4/ul
  Ret: 9.8%
  WBC: 80.3 x10_2/uL
  KIDNEY_L: 0.9 g
  KIDNEY_R: 0.9 g
  KIDNEY_TOTAL: 1.8 g
  LIVER: 8.7 g
  A/G: 0.9
  ALP: 1308.8 IU/L
  ALT: 44 IU/L
  AST: 74.4 IU/L
  BUN: 10.6 mg/dL
  CRE: 0.2 mg/dL
  Ca: 10.8 mg/dL
  Cl: 106.2 meq/L
  DBIL: 0.008 mg/dL
  GLC: 154.4 mg/dL
  IP: 9.5 mg/dL
  K: 4 meq/L
  LDH: 83.6 IU/L
  Na: 143 meq/L
  PL: 131.4 mg/dL
  RALB: 2.5 g/dL
  TBIL: 0.038 mg/dL
  TC: 74.2 mg/dL
  TG: 47.2 mg/dL
  TP: 5.4 g/dL
  gamma-GTP: 1.2 IU/L
30 mg/kg, 6 h, dose level Low
  TERMINAL_BW: 197.5 g
  APTT: 17.5 s
  Bas: 0.2%
  Eos: 1%
  Fbg: 277.8 mg/dL
  Hb: 13.3 g/dL
  Ht: 40.8%
  Lym: 74.4%
  MCH: 21 pg
  MCHC: 32.7%
  MCV: 64.3 fL
  Mono: 2.8%
  Neu: 20.4%
  PT: 15.4 s
  Plat: 114.9 x10_4/uL
  RBC: 633.4 x10_4/ul
  Ret: 9.6%
  WBC: 80.6 x10_2/uL
  KIDNEY_L: 0.9 g
  KIDNEY_R: 0.9 g
  KIDNEY_TOTAL: 1.8 g
  LIVER: 8.1 g
  A/G: 0.9
  ALP: 1395.6 IU/L
  ALT: 41 IU/L
  AST: 75.4 IU/L
  BUN: 9 mg/dL
  CRE: 0.2 mg/dL
  Ca: 10.5 mg/dL
  Cl: 106.8 meq/L
  DBIL: 0.004 mg/dL
  GLC: 150.8 mg/dL
  IP: 9.4 mg/dL
  K: 4.2 meq/L
  LDH: 72.6 IU/L
  Na: 143 meq/L
  PL: 123.6 mg/dL
  RALB: 2.5 g/dL
  TBIL: 0.036 mg/dL
  TC: 74.2 mg/dL
  TG: 35.4 mg/dL
  TP: 5.2 g/dL
  gamma-GTP: 1 IU/L
30 mg/kg, 9 h, dose level Low
  TERMINAL_BW: 194.6 g
  APTT: 16.9 s
  Bas: 0%
  Eos: 1.2%
  Fbg: 296 mg/dL
  Hb: 13.2 g/dL
  Ht: 40.5%
  Lym: 77.4%
  MCH: 21.4 pg
  MCHC: 32.6%
  MCV: 65.5 fL
  Mono: 3.2%
  Neu: 17.2%
  PT: 15.4 s
  Plat: 118 x10_4/uL
  RBC: 618.6 x10_4/ul
  Ret: 9.1%
  WBC: 84.5 x10_2/uL
  KIDNEY_L: 0.9 g
  KIDNEY_R: 0.9 g
  KIDNEY_TOTAL: 1.7 g
  LIVER: 7.7 g
  A/G: 0.9
  ALP: 1280.4 IU/L
  ALT: 38 IU/L
  AST: 70.8 IU/L
  BUN: 9.8 mg/dL
  CRE: 0.2 mg/dL
  Ca: 10.6 mg/dL
  Cl: 107.8 meq/L
  DBIL: 0.002 mg/dL
  GLC: 158.4 mg/dL
  IP: 9.8 mg/dL
  K: 4.1 meq/L
  LDH: 62.2 IU/L
  Na: 143.4 meq/L
  PL: 134 mg/dL
  RALB: 2.5 g/dL
  TBIL: 0.032 mg/dL
  TC: 81.4 mg/dL
  TG: 43.4 mg/dL
  TP: 5.4 g/dL
  gamma-GTP: 1 IU/L
30 mg/kg, 24 h, dose level Low
  TERMINAL_BW: 210.7 g
  APTT: 26 s
  Bas: 0%
  Eos: 1%
  Fbg: 290 mg/dL
  Hb: 13 g/dL
  Ht: 40.1%
  Lym: 79.2%
  MCH: 21.4 pg
  MCHC: 32.4%
  MCV: 65.9 fL
  Mono: 3%
  Neu: 15.2%
  PT: 15.6 s
  Plat: 120.5 x10_4/uL
  RBC: 608.2 x10_4/ul
  Ret: 8.4%
  WBC: 96.6 x10_2/uL
  KIDNEY_L: 0.9 g
  KIDNEY_R: 0.9 g
  KIDNEY_TOTAL: 1.9 g
  LIVER: 9.6 g
  A/G: 0.9
  ALP: 1710 IU/L
  ALT: 47.6 IU/L
  AST: 73 IU/L
  BUN: 15 mg/dL
  CRE: 0.2 mg/dL
  Ca: 10.8 mg/dL
  Cl: 105.4 meq/L
  DBIL: 0.01 mg/dL
  GLC: 192.8 mg/dL
  IP: 8.4 mg/dL
  K: 4.1 meq/L
  LDH: 78.4 IU/L
  Na: 142.4 meq/L
  PL: 150.2 mg/dL
  RALB: 2.6 g/dL
  TBIL: 0.034 mg/dL
  TC: 84 mg/dL
  TG: 73.8 mg/dL
  TP: 5.5 g/dL
  gamma-GTP: 1 IU/L
